Values of other authors as cited in patent US20050182028A1, “Pharmaceutical formulation for oral delivery of bisphosphates” (priority 2004, published 2005).

Details: background statement

Q: With `O=P(O)(O)C(O)(Cc1cccnc1)P(=O)(O)O` [risedronate, Risedronate] as the compound, how does the oral bioavailability read?
A: 0.63%
